Converted amounts (≈) assume the structure as drawn.
Columns and labels:
[1] = Protein binding (plasma equilibrium dialysis); assay type: in vitro ADME; settings: 5 hours at 37° C.
Outline: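 Compound spiked into plasma at 1 μM final (0.2% DMSO) and dialysed against phosphate buffer for 5 hours at 37 °C with shaking. Donor and receiver samples, matrix-matched and acetonitrile-quenched with internal standard, quantified by LC/MS/MS alongside 0-hour plasma samples.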

[2] = Solubility in aqueous solution (deionized, distilled water); assay type: physicochemical; settings: kinetic from dmso stock, 1% DMSO, read-out: Aqueous Solubility H2O
Outline: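 DMSO stock (10 mM) diluted into 100 mM phosphate buffer pH 7.4, or into deionized distilled water for the aqueous assay, at 1% final DMSO and shaken 1 h at room temperature. After centrifugation, supernatants quantified by LC-MS/MS against a calibration curve with internal standard.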

[3] = Metabolic stability in human liver microsomal preparation; assay type: in vitro ADME; settings: pH 7.4, human liver microsomes, NADPH, 37° C.
Outline: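 Compound at 1.5 μM with 0.75 mg/mL human liver microsomes (concentrations before NADPH addition) in 0.1 M potassium phosphate, 1 mM EDTA, pH 7.4 was preincubated 5 min at 37 °C, then started with NADPH. Samples at 0, 5, 15, 30 and 45 min were quenched with acetonitrile/internal standard and analysed by LC/MS.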

[4] = molecular target: glycolate oxidase (GOX) in HepaRG-CAR cells (Homo sapiens (Human), UniProt Q9UJM8); experiment: HepaRG-CAR cell-based assay for quantitation of glycolate oxidase inhibition (cellular glycolate flux, GC-MS); settings: HepaRG-CAR cells, 500 μM glycolate, 48 hours incubation; read-out: IC50
[5] = molecular target: recombinant full-length human hydroxyacid oxidase 1 (HAO1), the equivalent of hGOX (Homo sapiens (Human), UniProt Q9UJM8); experiment: In-vitro human glycolate oxidase (hGOX) assay (Amplex red/HRP fluorescence); assay type: biochemical
Sequence of recombinant full-length human hydroxyacid oxidase 1 (HAO1), the equivalent of hGOX (Q9UJM8 whole entry): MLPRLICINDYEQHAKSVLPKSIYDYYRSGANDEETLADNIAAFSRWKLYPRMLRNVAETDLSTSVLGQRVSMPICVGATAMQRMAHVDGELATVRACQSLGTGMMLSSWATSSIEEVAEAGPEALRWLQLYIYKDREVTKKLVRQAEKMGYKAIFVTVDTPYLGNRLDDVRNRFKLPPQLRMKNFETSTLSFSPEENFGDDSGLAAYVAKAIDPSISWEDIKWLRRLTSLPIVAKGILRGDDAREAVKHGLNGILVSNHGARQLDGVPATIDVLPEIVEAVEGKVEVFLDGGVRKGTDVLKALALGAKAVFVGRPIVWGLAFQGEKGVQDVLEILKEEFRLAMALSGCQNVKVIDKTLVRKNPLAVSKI
Experimental: Biological Activity Assay: In-Vitro Human Glycolate Oxidase (hGOX) Assay
The in-vitro glycolate oxidase assay was performed using recombinant full-length human hydroxyacid oxidase 1 (HAO1), the equivalent of hGOX. […] Purified HAO1 was dissolved in assay buffer consisting of 10 mM NaCl, 110 mM KCl, 2 mM MgCl2, 50 mM HEPES (pH 7.4) and 0.01% Triton™ X-100.

Sequence of glycolate oxidase (GOX) in HepaRG-CAR cells (Q9UJM8 whole entry): as above

**Q.** For `O=C(O)c1nn[nH]c1Sc1ccc(Cl)cc1` [Example I-001, 5-((4-chlorophenyl)thio)-1H-1,2,3-triazole-4-carboxylic acid], which recovery at 5 h, 1 μM [1] is on record?
**A.** 75.4%

**Q.** And the solubility at 1 h [2]?
**A.** 83.8 µM (≈ 21.4 µg/mL)

**Q.** And the CLint scaled at 1 μM [3]?
**A.** 1.19 mL/min/kg

**Q.** And the half-life at 1 μM ([3]; 0-45 min, read-out: Metabolic Stability t1/2)?
**A.** 24.3 h

**Q.** What about the IC50 [4] of the same compound?
**A.** 1000 nM

**Q.** And the IC50 [5]?
**A.** 110 nM
